Tests used:
[1] = test system: PTZ-induced seizures in zebrafish (Danio rerio); experiment: pentetrazol (PTZ)-induced seizures in zebrafish larvae; format: in vivo; details: 7 dpf larvae, PTZ 5 mmol/L
Protocol: Adults wild-type (strain AB) zebrafish (Danio rerio) were maintained at 28-29° C. on a light cycle of 14 h light:10h dark (lights on at 7 am; lights off at 9 pm) at ZeClinics animal facility (Barcelona). All procedures involving animals and their care were conducted accordingly to CEA-OH/9421/2 authorization from Government of Catalonia. Embryos obtained by pairwise mating were raised in E3 media at the controlled temperature of 28.5° C. until 7 days post-fertilization (dpf) when the experiments were performed.
The anticonvulsant activity of the claimed compounds on the nervous system of zebrafish (Danio rerio). This test is the modern alternative to tests in adult animals as Danio rerio is very versatile organism that has a number of physiological similarities to mammals, including humans (Expert Opin. Drug Metab. Toxicol. 2009, 5, 393). Steroidal compounds were tested in three concentrations (1, 3 and 5 μmol.L^−1) on 7 days post-fertilization (dpf) wild-type larvae. As a negative control, sibling larvae were incubated with DMSO 1%, which allows us to detect behavioral alterations of PTZ treated larvae. Seizures were induced by treatment of pentetrazol (PTZ) at the dose 5 mmol.L^−1. Commercially available anti-convulsant drug Topiramate was used as comparator. Results were analyzed with GraphPad Prism software and statistical significance is assessed by the One-way ANOVA statistical analysis followed by Tukey's multiple comparisons test. The zebrafish larvae locomotion and response to visual stimuli are traced and analyzed by the EthoVision XT 12 software and the DanioVision device from Noldus Information Technologies, Wageningen, The Netherlands.
This closed system consists of a camera placed above a chamber with circulating water and a temperature sensor that is set at 28° C. Individualized larvae in a 48-wells plate are placed in the chamber, which can provide different stimuli (light/dark environment, tapping, sound) controlled by the software. Prior to each experiment, larvae were left for 10 minutes in dark for acclimation, then predetermined series of alternating dark and light environment are presented to the larvae. The final experimental protocol is divided in three main part: first a 15 minutes step with light on, then a series of 5 short flashes of light to induce epileptic seizures and finally a 25 minutes dark/light alternating environments phase. Different sets of information can be extrapolated from the different phases: while the first step is useful to detect changes in the total larvae locomotion, the second part allows us to analyze the larval response to a seizure-inducing visual stimulus and measure the seizure characteristics: the maximum velocity and the number of angles turns (specific of seizure erratic movement). The final phase is useful to detect anomalies in larval movement and deviations from the stereotyped behavior (natural locomotor behavior of zebrafish is active in dark and immobile in light). The anticonvulsant effect of compounds was studied at doses of […] for the compound shown in Example 1, Example 2 and Example 3.

[2] = test system: PTZ-induced seizures in 12- and 25-day-old rats; experiment: PTZ-induced generalized tonic-clonic seizures in immature rats; format: in vivo, rat
Protocol: (§1) Anticonvulsant effect of compounds was evaluated in two models of epileptic seizures in immature rats (PTZ model and 6 Hz model). PTZ convulsions were tested in 12- and 25-day-old rats, 6 Hz-induced seizures in 15- and 25-day-old rats. Young adult rats (P60) were also used in either test. Day of birth was taken as P0. Experiments evaluating precognitive effect were performed in adult male rats of the Wistar and Long Evans strain (3 months old, b.w. 300-400 g). All animals were obtained from a breeding facility of Institute of Physiology CAS (certificate No. 1396/2014-MZE-17214) Animals were held in standard conditions (21±1° C., humidity 50-60%, light regime 12/12) with unrestricted access to food and water. All manipulations with animals were performed according to the https://nc3rs.org.uk/arrive-guidelines and to Czech Animal Protection Law 246/1992 Sb. And international directives (EU Directive 2010/63/EU for animals' experiments).
(§2) Two age groups of immature male Wistar rats were used in either experiment. In PTZ model P12 corresponding by a maturation of the brain to early postnatal human babies, i.e. to the period where children epileptic encephalopathy mostly resistant to present pharmacotherapy start to appear. The other group—P25 animals corresponds with school-age children. Generalized tonic-clonic seizures were elicited by a subcutaneous injection of PTZ in a dose of 100 mg/kg. The 6 Hz model was tested in P15 (at this age eyes are open and it is not necessary to surgically distract lids). Biphasic pulses with […] were applied transcorneally for 3 s by a constant current stimulator of Ugo Basile company. PTZ induced generalized seizures represent a model of human generalized tonic-clonic seizures, seizures elicited by 6 Hz stimulation are generally taken as a model of temporal (psychomotor, complex partial) seizures. Differences in latencies and seizure severity were evaluated by ANOVA with a subsequent pairwise comparison by Holm-Sidak test. Incidence of seizures were evaluated by Fischer exact test. Critical p value was set at p=0.05.
Anticonvulsant effect was studied in 12- and 25-day-old male Wistar rats. Steroid derivatives were administered at doses of 1, 5 and 10 mg/kg i.p. 20 min before the administration of PTZ (100 mg/kg s.c.).

[3] = test system: seizures elicited by 6 Hz stimulation in rats; experiment: 6 Hz transcorneal electrical stimulation seizure model in rats; format: in vivo, rat
Protocol: as §1, §2
Younger group was formed by 15-day-old animals—the animals at this age have open eyes and it is not necessary to distract eyelids surgically. The other group was 25 days old. Sensitivity of these two age groups is different, therefore we used current intensities of 40, 60, and 80 mA in 15-day-old rats and 20, 40, and 60 mA in the 25-day-old animals. Stimulations were made in 20-min intervals, 10 min before each stimulation a drop of mesocaine into either eye was used as a local anesthetic. Steroid derivatives in a dose of 10 mg/kg i.p. were administered 20 min before the first stimulation. Seizures elicited by 60-mA intensity of stimulation current were suppressed, those elicited by 80 mA not.

memory in rats = experiment: Passive avoidance test, intact animals and dizocilpine (MK-801) schizophrenia-like behavior; format: in vivo, rat
Protocol: as §1
Schizophrenia-like behavior was induced by i.p. administration of dizocilpine (MK-801) at a dose of 0.1 mg/kg. The effect of the Compound from Example 1 was tested in Passive avoidance test (Psychopharmacology (Berl). 2016, 233, 2077). This test allows to study memory and learning ability. The Compound from Example 1 was applied for 30 min i.p. before the task in doses of 0.1; 1 and 3 mg/kg.

## CC(=O)[C@H]1CC[C@H]2[C@@H]3CC[C@@H]4C[C@H](OC(=O)C5CCC(=O)N5)CC[C@]4(C)[C@H]3CC[C@]12C (stereo partly drawn) [Example 1, (3R,5R,8R,9S,10S,13S,14S,17S)-17-Acetyl-10,13-dimethylhexadecahydro-1H-cyclopenta[a]fenantren-3-yl 5-oxopyrrolidine-2-carboxylate]
[1]; doses of 1, 3 and 5 mg/kg
  epileptiform locomotor activity in the dark phase/light test, sedation: decreased epileptiform locomotor activity in the dark phase/light test without causing sedation
[1]; doses of 1, 3 and 5 mg/kg (1, 3 and 5 μmol/L in the source)
  locomotor activity epileptiform induced by PTZ (spontaneous locomotor activity, maximum velocity, angle turns): significantly reduced the locomotor activity epileptiform induced by PTZ
[2]; P12 and P25 rats, 1, 5, 10 mg/kg i.p.
  seizure severity (5-point scale): copied the presence of GTCS
[2]; P12 rats, 1 mg/kg i.p.
  tonic phase of GTCS: suppressed the tonic phase of GTCS
[2]; P12 rats, 5 mg/kg i.p.
  incidence of seizures: significantly decrease the incidence of seizures
[2]; P12 rats, 10 mg/kg i.p.
  incidence of seizures: completely suppressed the seizures
[2]; P12 rats, 1 and 5 mg/kg i.p.
  latencies to GTCS: significantly prolonged
[2]; P25 rats, 1 mg/kg i.p.
  latencies of seizures: not changed
[2]; P25 rats, 5 and 10 mg/kg i.p.
  animals with seizures: one animal only
  incidence of GTCS: decrease the incidence of GTCS without a selective effect against the tonic phase
[3]; P15 rats, 10 mg/kg i.p.
  seizure severity: not affected
[3]; P15 rats, 60 and 80 mA, 10 mg/kg i.p.
  duration of seizures: significantly shortened at both current intensities
[3]; P15 rats, 60 mA, 10 mg/kg i.p.
  incidence of seizures: suppressed
[3]; P15 rats, 80 mA, 10 mg/kg i.p.
  incidence of seizures (suppressed or not): not
[3]; P25 rats, 10 mg/kg i.p.
  duration of seizures: significantly shorter
  incidence of seizures: tendency to a decreased incidence of seizures
  seizure intensity (severity): lower intensity
[3]; adult (P60) rats, 1, 5, 10 mg/kg i.p., tendency after 10 mg/kg
  changes of the threshold intensity: did not reach the level of significance
Memory in rats; dizocilpine 0.1 mg/kg, compound 0.1 mg/kg i.p.
  memory damage measured 1 h after the stimulus: prevented memory damage
Memory in rats; intact animals, 0.1, 1 and 3 mg/kg i.p.
  memory one hour after the aversive stimulus: does not impair memory

Source: patent US20220162257A1, “3ALPHA, 5BETA-NEUROACTIVE STEROIDS FOR THE TREATMENT OF EPILEPSY AND SEIZURE DISEASES” (USTAV ORGANICKE CHEMIE A BIOCHEMIE AV CR, V. V. I., priority 2019, published 2022)
